Experimental findings from publication PMC9112895, “Selective Inhibition of Plasmodium falciparum ATPase 6 by Artemisinins and Identification of New Classes of Inhibitors after Expression in Yeast” (Antimicrobial Agents and Chemotherapy, 2022) are described below.

The target of one assay is SERCA1a (Oryctolagus cuniculus, UniProt P04191). Put plainly: In vitro activity assay, SERCA1a (membrane-bound). It is filed as biochemical, rabbit. Set-up: containing the SERCA1a coding region from rabbit skeletal fast-twitch muscle; expressed in transfected cells. The following applies: parallel in vitro activity assay, 100 µM (Fig. S1D). How it is done: Activity assays were performed as described by Longland et al. ([55]) and LeBel et al. ([56]), except that the reaction mixtures were incubated at 30°C instead of 37°C. […] Then, 5.8 mM ATP was added and incubated for an additional 15 min at 30°C. The reaction was stopped with 0.5 mL 6.5% trichloroacetic acid (TCA) on ice, and the mixture was centrifuged at 4°C for 10 min at 16,000 × g; 0.5 mL of the supernatant was added to 1.5 mL of copper acetate buffer (0.25% copper sulfate pentahydrate, 4.6% sodium acetate trihydrate, dissolved in 2 M acetic acid [pH 4.0]) and mixed by vortex-mixing before the addition of 0.25 mL of 5% ammonium molybdate, followed by 0.25 mL METOL buffer (2% p-methyl-aminophenol sulfate, 5% sodium sulfite). Samples were incubated for 10 min, and the absorbance was measured at 870 nm in a spectrophotometer. The Pi standard was 0.4387 g/100 mL KH2PO4.

Another assay has as its target T1, L263E PfATP6 (Plasmodium falciparum, UniProt Q08853, L263E).
T1 construct: expressed in transfected cells; host or cells: Saccharomyces cerevisiae K667-derived strain
T1 sequence (Q08853 1-1228 L263E): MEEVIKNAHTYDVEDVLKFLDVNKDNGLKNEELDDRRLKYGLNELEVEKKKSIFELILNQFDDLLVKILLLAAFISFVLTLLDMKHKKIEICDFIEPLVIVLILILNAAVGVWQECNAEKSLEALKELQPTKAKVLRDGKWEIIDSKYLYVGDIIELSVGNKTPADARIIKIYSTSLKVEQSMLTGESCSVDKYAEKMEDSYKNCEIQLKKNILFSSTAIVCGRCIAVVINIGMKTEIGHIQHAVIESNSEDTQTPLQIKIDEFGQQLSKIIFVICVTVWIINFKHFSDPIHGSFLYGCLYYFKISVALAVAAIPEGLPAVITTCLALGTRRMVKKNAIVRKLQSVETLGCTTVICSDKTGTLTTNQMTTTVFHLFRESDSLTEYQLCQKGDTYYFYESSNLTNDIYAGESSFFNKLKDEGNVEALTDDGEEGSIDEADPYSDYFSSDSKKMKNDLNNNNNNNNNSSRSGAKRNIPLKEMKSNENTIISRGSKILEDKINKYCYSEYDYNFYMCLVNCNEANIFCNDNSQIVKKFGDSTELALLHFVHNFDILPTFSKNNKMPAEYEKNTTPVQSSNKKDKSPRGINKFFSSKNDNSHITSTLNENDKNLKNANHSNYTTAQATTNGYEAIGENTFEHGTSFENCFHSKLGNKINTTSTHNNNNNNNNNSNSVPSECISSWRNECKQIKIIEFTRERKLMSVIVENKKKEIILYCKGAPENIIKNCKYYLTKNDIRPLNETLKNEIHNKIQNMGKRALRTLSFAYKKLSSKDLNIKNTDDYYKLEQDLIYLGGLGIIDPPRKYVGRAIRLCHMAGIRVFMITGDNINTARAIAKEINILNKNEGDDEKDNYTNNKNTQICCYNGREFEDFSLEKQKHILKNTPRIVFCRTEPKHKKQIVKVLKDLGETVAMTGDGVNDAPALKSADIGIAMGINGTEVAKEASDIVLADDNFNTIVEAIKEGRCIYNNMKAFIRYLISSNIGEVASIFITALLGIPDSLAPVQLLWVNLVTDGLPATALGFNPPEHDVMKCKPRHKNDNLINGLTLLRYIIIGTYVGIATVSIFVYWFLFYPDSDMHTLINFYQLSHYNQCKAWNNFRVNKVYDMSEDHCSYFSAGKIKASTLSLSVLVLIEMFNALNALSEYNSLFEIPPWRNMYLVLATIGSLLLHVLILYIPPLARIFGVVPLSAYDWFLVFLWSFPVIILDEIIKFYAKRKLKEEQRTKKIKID
Put plainly: Yeast whole-cell assay, PfATP6 L263E mutant. It is filed as cell-based. The following applies: L263 mutant; read-out: IC50 (mean ± SD). How it is done:
Yeast transformations were performed using the method described by Gietz and Schiestl ([48]), and transformants were selected by an uracil auxotrophic marker. Transformations were confirmed by colony PCR. Both K667 and K667Δpdr5::HIS were transformed with the following plasmids: pUGpd plasmid as a vector-only control (derived from pRS316 [49]); br434 plasmid (derived from pRS316 [50]) containing the SERCA1a coding region from rabbit skeletal fast-twitch muscle (pbr434-SERCA1a); and pUGpd containing the yeast-optimized coding region of PfATP6 from Plasmodium falciparum (pUGpd-PfATP6). Site-directed mutagenesis was performed on the SERCA1a coding region to produce the mutation E255L in the protein. Mutations were also introduced into the PfATP6 coding region to produce mutations L263E, A623E, and S769N and the double mutation A623E/S769N ([13]).
The screening assay used here was developed from the protocol used by Pulcini et al. ([13]). […] The optimal calcium concentration was periodically monitored and, if necessary, adjusted using a calcium concentration range of 10 to 30 mM. […] The yeast growth was estimated from the absorbance at 620 nm in a Tecan plate reader. […] The data collected were analyzed using GraphPad Prism v9.0 (GraphPad software, San Diego, CA, U.S.A).

Sequence of SERCA1a (P04191 other isoform, or with tags, fused parts or gaps): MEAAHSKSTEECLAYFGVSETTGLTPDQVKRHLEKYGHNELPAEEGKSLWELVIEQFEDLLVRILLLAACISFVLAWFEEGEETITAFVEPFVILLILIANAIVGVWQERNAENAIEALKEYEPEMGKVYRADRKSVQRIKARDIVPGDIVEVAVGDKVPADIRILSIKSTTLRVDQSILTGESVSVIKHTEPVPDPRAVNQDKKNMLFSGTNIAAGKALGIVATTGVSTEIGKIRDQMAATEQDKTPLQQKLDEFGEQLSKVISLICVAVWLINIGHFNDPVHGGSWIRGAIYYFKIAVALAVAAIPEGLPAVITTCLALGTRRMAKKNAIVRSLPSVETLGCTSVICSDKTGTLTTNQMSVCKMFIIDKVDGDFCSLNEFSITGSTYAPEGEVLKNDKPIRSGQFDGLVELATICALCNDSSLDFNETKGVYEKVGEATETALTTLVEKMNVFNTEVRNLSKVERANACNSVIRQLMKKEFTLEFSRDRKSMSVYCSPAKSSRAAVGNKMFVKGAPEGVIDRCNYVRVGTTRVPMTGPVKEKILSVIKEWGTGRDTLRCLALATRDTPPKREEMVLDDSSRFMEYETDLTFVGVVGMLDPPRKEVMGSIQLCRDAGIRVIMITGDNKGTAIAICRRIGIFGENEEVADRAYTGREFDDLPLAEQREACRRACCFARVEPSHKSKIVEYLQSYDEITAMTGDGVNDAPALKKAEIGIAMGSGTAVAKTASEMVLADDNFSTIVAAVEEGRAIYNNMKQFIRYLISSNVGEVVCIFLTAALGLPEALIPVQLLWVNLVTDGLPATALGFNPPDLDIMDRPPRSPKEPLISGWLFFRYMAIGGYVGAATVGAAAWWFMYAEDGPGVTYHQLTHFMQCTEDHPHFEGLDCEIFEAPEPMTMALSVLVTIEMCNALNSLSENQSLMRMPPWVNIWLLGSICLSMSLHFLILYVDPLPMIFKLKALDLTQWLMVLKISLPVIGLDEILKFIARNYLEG

Usually IC50 stands for the concentration needed to halve the response being measured. Regarding `CC(=O)C1=C(O)[C@@H]2[C@H]3c4c[nH]c5cccc(c45)C[C@H]3C(C)(C)N2C1=O` [CPA, cyclopiazonic acid], the “inhibition of purified SERCA1a activity” value against SERCA1a is recorded as “apparent inhibition”. The IC50 at L263E PfATP6 is 5.21 µM.
